Experimental findings from patent US5622933A, “Multiple branch peptide constructions for use against HIV” (priority 1993, dated 1997) are described below.

One data set relates to HIV-1 (IIIB). Type of data set: cell-based. The following applies: for number of syncytia (HIV-1 induced cell fusion): 24 hours. An excerpt: 50×10^3 8E5 cells chronically infected with a RT-deficient HIV-I (IIIB) isolate, were co-cultivated with 150×10^3 phytohemagglutinin (PHA) stimulated human peripheral blood lymphocytes (PBLs) in the presence of the indicated peptide in 96-well plates. The MBPCs used are described by the peptides attached, and the number thereof, to a core lysine matrix, which is designated HLC. All amino acids used for this experiment were in dextro form.

A further data set deals with HIV-1 (89.6). As to the kind of experiment: Infection of and syncytia formation in human primary macrophages. Type of data set: cell-based. The following applies: 5×10^-5 M; for inhibition of macrophage infection, in words: 10,000 TCID50. How it is done:
MBPCs were also evaluated for their ability to block the infection of human primary macrophages by a highly cytopathic macrophage-tropic isolate, HIV-1 (89.6). Mononuclear cells were isolated from leukophoresis units enriched for monocytes by Ficoll-Hypaque density separation. Macrophages were purified by adherence to plastic in RPMI 1640 supplemented with 10% fetal calf serum and 5% human AB serum. […] 5×10^5 cells were treated for 45 minutes with the indicated MBPC at concentrations of 5×10^-5 M and subsequently exposed to 10,000 TCID50 of the macrophage-tropic isolate HIV (89.6). […] After thorough washing, the cells were fed again with medium and analyzed for HIV-1 p24^gag production and syncytia formation 4 days post-infection.

The next data set relates to HIV-1Lai. As to the kind of experiment: Syncytia formation blockage (chronically infected cells + uninfected Molt-4 cells). It counts as cell-based. Details: key: -: The presence of syncytia is indicated by + signs, allocated in approximate proportion to the quantities counted; The presence of syncytia is indicated by + signs, allocated in approximate proportion to the quantities counted; ++: The presence of syncytia is indicated by + signs, allocated in approximate proportion to the quantities counted; +++: The presence of syncytia is indicated by + signs, allocated in approximate proportion to the quantities counted; ++++: The presence of syncytia is indicated by + signs, allocated in approximate proportion to the quantities counted. How it is done:
(§1) CEM or C8166 cells were chronically infected with HIV-1 Lai or HIV-2 Rod, or HIV-1MN, respectively. Infected cells (1×10^4) were incubated for 2 hours with various concentrations of MBPCs in 96-well plates. Uninfected Molt-4 cells (4×10^4) were then added in […]. Syncytia were counted after 18 hours at 37° C.

The test system of a further data set is HIV-1MN. Described as above. It counts as cell-based. More on the design: key: -: The presence of syncytia is indicated by + signs, allocated in approximate proportion to the quantities counted; The presence of syncytia is indicated by + signs, allocated in approximate proportion to the quantities counted; ++: The presence of syncytia is indicated by + signs, allocated in approximate proportion to the quantities counted; +++: The presence of syncytia is indicated by + signs, allocated in approximate proportion to the quantities counted; ++++: The presence of syncytia is indicated by + signs, allocated in approximate proportion to the quantities counted. Here is the method: as §1

Another data set relates to HIV-2Rod. The description is as above. It counts as cell-based. More on the design: key: -: The presence of syncytia is indicated by + signs, allocated in approximate proportion to the quantities counted; The presence of syncytia is indicated by + signs, allocated in approximate proportion to the quantities counted; ++: The presence of syncytia is indicated by + signs, allocated in approximate proportion to the quantities counted; +++: The presence of syncytia is indicated by + signs, allocated in approximate proportion to the quantities counted; ++++: The presence of syncytia is indicated by + signs, allocated in approximate proportion to the quantities counted. Here is the method: as §1

Another data set has as its system HIV-1 or HIV-2. As to the kind of experiment: Infection of human PBLs (RT activity, p24gag). Type of data set: cell-based. The following applies: MBPC 10^-5 M; days 10 and 13 after infection; culture supernatants. How it is done: Peripheral blood lymphocytes (PBLs) were obtained from healthy donors, stimulated with phytohemagglutinin, and cultivated in RPMI 1640 containing 10% fetal calf serum and interleukin-2 (complete medium). Samples of 6×10^6 cells/ml were either treated or not treated with the indicated MBPC at a concentration of 10^-5 M and exposed to HIV-1 or HIV-2 (100 TCID50) for 1 hour at 37° C. in the continued presence of MBPCs. After thorough washing, PBLs were cultured in complete medium with 10^-5 M of the corresponding MBPC. The state of infection was assessed by determination of RT activity (for both HIV-1 and HIV-2 isolates) and HIV-1 p24^gag measurements (Coulter kit, cut-off 10 pg/ml) in the case of HIV-1 isolates 10 days post-infection. The MBPC treatment used were as follows: 1-none; 2- [GPGRAF]8 -MLC; 3-[[…]]4 -MLC; 4- [[…]]4 -MLC (a non-HIV related MBPC) (MLC indicates a core lysine structure). The results shown in FIGS. 2A-2C are representative of three separate experiments. The nature of the viral isolates used was checked by PCR (HIV-1 versus HIV-2 isolates) and RIPA for discriminating between HIV-1 (LAI) and HIV-1 (NDK).

The subject of a further data set is rabbits. As to the kind of experiment: ELISA of sera from rabbits immunized with MBPC.1 or MBPC.2. Type of data set: in vivo, rabbit. The following applies: for reactivity of sera from rabbits immunized with the MBPC (ELISA, FIG. 6): against MBPC.1, MBPC.2, Mono.1 and V3 Cons; for antibody response in rabbits: rabbit, in vivo. How it is done: Sera from rabbits immunized with either MBPC.1 or MBPC.2 were tested in ELISA for their ability to bind MBPC.1, MBPC.2, Mono.1 (the monomeric form of MBPC.1) and the North American/European consensus V3 sequence (V3 Cons, or Cs).
In another set of experiments, sera from rabbits immunized with either MBPC.1 or MBPC.2 were tested (at 1/100 and 1/1000 dilutions) against various concentrations of MBPC.1, MBPC.2 and V3 Cons. FIGS. 7A, 7B and 7C clearly indicate that sera from rabbits immunized with MBPC.2 reacted in a dose dependant manner against MBPC.2 and V3 Cons. No reactivity against MBPC.1 was detected.

Another data set deals with HIV. As to the kind of experiment: Inhibition of syncytia formation induced by HIV (summary statements). It counts as cell-based. Here is the method:
as §1

Like-named read-outs stand apart in the source and are kept apart here. Ends that are not written are not given here.

In the case of (GPGRAF)8 -(K)4 -(K)2 -K-βA-OH [MBPC.3], the “number of syncytia (HIV-1 induced cell fusion)” value is given as “- (- indicates the total absence of syncytia in the well)” with HIV-1 (IIIB) (5 × 10^-5 M), “- (- indicates the total absence of syncytia in the well)” in the data set on HIV-1 (IIIB) (5 × 10^-6 M) and “±” with HIV-1 (IIIB) (5 × 10^-7 M). The “inhibition of syncytia formation, in words” value with HIV-1 (IIIB) (5×10^-7 M) was “marked inhibition of syncytia formation”. Moreover, the “inhibition of macrophage infection, in words” value in the data set on HIV-1 (89.6) is “able to inhibit infection”. For the same substance, the “giant cells (syncytia) in macrophage cultures” value in the data set on HIV-1 (89.6) (pretreated, 4 days post-infection) is “very few giant cells”. Also, the Syncytia formation entry with HIV-1Lai (MBPC Conc. 5 × 10^-6 M) is reported as “-”; in the data set with HIV-1Lai (MBPC Conc. 10^-6 M), “+”; with HIV-1Lai (MBPC Conc. 10^-7 M), “++++”; in the data set on HIV-1MN (MBPC Conc. 5 × 10^-6 M), “-”; in the data set with HIV-1MN (MBPC Conc. 10^-6 M), “+”; in the data set on HIV-1MN (MBPC Conc. 10^-7 M), “+++”. The results for the Syncytia formation result in the data set with HIV-2Rod (MBPC Conc. 5 × 10^-6 M), in the data set with HIV-2Rod (MBPC Conc. 10^-6 M) and with HIV-2Rod (MBPC Conc. 10^-7 M) were “-”, “-” and “+”, respectively. Further, the “RT activity lower in MBPCs-treated samples than control samples” value in the data set with HIV-1 or HIV-2 is reported as “more than 90%”. Moreover, the “reactivity of sera from rabbits immunized with the MBPC (ELISA, FIG. 6)” value in the data set on rabbits is on record as “did not react against MBPC.1 (except for a weak reactivity of the serum from rabbit A)”. In the data set with rabbits, the “antibody response in rabbits” value is recorded as “did not induce a significant antibody response”. Also, in the data set on HIV, the “MBPC concentration with which inhibiting effect on syncytia formation was observed in vitro” value is “around 10^-6 M”.

In the case of “(RKSIHIGPGRAFYT)4 -(K)2 -K-βA-OH (also: four copies on lysine core (K)2-K-βA-OH) [MBPC.5, tetradecapeptide MBPC]”, in the data set on HIV-1 (IIIB) (5×10^-6 M), the “inhibition of syncytia formation, in words” value is recorded as “able to inhibit syncytia formation”. Besides, the “number of syncytia (HIV-1 induced cell fusion)” value with HIV-1 (IIIB) (5 × 10^-6 M) was “- (- indicates the total absence of syncytia in the well)”; in the data set with HIV-1 (IIIB) (5 × 10^-7 M), “+++”. In addition, the “inhibition of macrophage infection, in words” value in the data set on HIV-1 (89.6) was “able to inhibit infection”. Further, the Syncytia formation result is on record as “-” in the data set on HIV-1Lai (MBPC Conc. 5 × 10^-6 M); “+” in the data set with HIV-1Lai (MBPC Conc. 10^-6 M); “++++” with HIV-1Lai (MBPC Conc. 10^-7 M); “-” with HIV-1MN (MBPC Conc. 5 × 10^-6 M); “++” with HIV-1MN (MBPC Conc. 10^-6 M); “++++” with HIV-1MN (MBPC Conc. 10^-7 M). The Syncytia formation result with HIV-2Rod (MBPC Conc. 5 × 10^-6 M) is on record as “-”; in the data set on HIV-2Rod (MBPC Conc. 10^-6 M), “-”; in the data set with HIV-2Rod (MBPC Conc. 10^-7 M), “+”. For the same substance, the “RT activity lower in MBPCs-treated samples than control samples” value in the data set with HIV-1 or HIV-2 is listed as “more than 90%”. Moreover, in the data set on rabbits, the “reactivity of sera from rabbits immunized with the MBPC (ELISA, FIG. 6)” value is “recognized significantly MBPC.2 and V3 Cons”. Further, in the data set with rabbits, the “antibody response in rabbits” value is recorded as “did invoke such a response”. Moreover, the “inhibiting effect on syncytia formation, in words” value in the data set with HIV is recorded as “inhibiting effect at a slightly higher concentration”.
